Measured values as given in US20210121426A1, “BLOOD PURIFICATION BY ALKALINIZING AGENT” (TOHOKU UNIVERSITY, priority 2017, published 2021).
Marks after values point to notes of the source that are not given here.

What was measured:
Assay type in all cases: in vivo
[1] = tested on: indoxyl sulfate; test: Human clinical trial in CKD patients: indoxyl sulfate in plasma and early morning urine (LC-MS/MS); set-up: key to Influence on concentration of IS / Influence on IS U/P ratio: Excellent effects: ◯; Poor effects: X; No significant difference: —; (◯): whether or not there is an effect of promoting excretion of indoxyl sulfate into the urine cannot be determined
Experimental: (§1) 1. […] Patients were assigned to each group so that age, sex, presence of diabetes, and eGFR were not biased. Each group was treated according to the “CKD medical care guide-summary of treatment” (hereinafter referred to as standard treatment).
(§2) An alkalinizing agent was not administered to the control group. […] A pH of early morning urine was controlled over time so that the dosage could be increased up to 6 tablets, 3 times a day (morning, noon, evening) as needed according to the discretion of the physician in cases where a pH of early morning urine was less than pH 6.5. To the group B, 3 tablets a day in which each tablet contained 500 mg of sodium bicarbonate were orally administered 3 times a day (morning, noon, evening) for 24 weeks. A pH of early morning urine was controlled over time so that the dosage could be increased up to 6 tablets, 3 times a day (morning, noon, evening) as needed according to the discretion of the physician in cases where a pH of early morning urine was less than pH 6.5.
(§3) Early morning urine and blood were collected before the start of administration, and 6 weeks, 12 weeks, and 24 weeks after the start of administration, and each specimen was stored at −80° C. Methods used in the present field for indoxyl sulfate, p-cresyl sulfate, phenylacetyl-L-glutamine, hippuric acid, and argininosuccinic acid in urine and blood (Sato, E., et. al., Metabolic alteration by indoxyl sulfate in skeletal muscle induce uremic sarcopenia in chronic kidney disease., Sci Rep. 2016 Nov. 10; 6:36618. doi: 10.1038/srep36618, and the like) were referred to, and quantitative analysis was performed using the following liquid chromatography triple quadrupole mass spectrometer (LC-MS/MS).
(§4) For LC, NANOSPACE SI-2 (manufactured by Shiseido) was used, and […] MGM was selected as the analytical column.
(§5) For MS, TSQ Quantiva (manufactured by Thermo Fisher Scientific Co., Ltd.) was used, and five compounds were ionized in the negative mode and detected using the Selected Reaction Monitoring method. The quantitative value was calculated using a calibration curve prepared with a standard solution of each compound.
(§6) For statistical analysis, the Mann-Whitney test was used for comparison between groups, and the Wilcoxon test was used for comparison of changes over time. The Pearson test was used for correlation.
(§7) Then, the average value and SD of each group were calculated for (i) to (ix) above. For each of (iv) to (ix) above, the average value and SD of each group were calculated for all data of 6 weeks, 12 weeks, and 24 weeks after the start of administration in each group.

[2] = tested on: β2-microglobulin; test: Human clinical trial: urinary β2-microglobulin (latex agglutination method)
Experimental: as §1, §2, §3
In addition, the amount of urinary β2-microglobulin was measured by latex agglutination method using the LZ test “Eiken” β2-M and LZ-β2-M standard U “Eiken” (Eiken Chemical Co., Tokyo, Japan). Furthermore, the amount of cystatin C in the serum was measured by a colloidal gold agglutination method using Nescoat GC Cystatin C (Nm) (Alfresa Pharma, Osaka, Japan).
as §6

[3] = tested on: hippuric acid; test: Human clinical trial in CKD patients: hippuric acid in plasma and early morning urine (LC-MS/MS); set-up: key to Influence on concentration of HA / Influence on HA U/P ratio: Excellent effects: ◯; Poor effects: X; No significant difference: —; (◯): whether or not there is an effect of promoting excretion of indoxyl sulfate into the urine cannot be determined
Experimental: as §1, §2, §3, §4, §5, §6, §7

[4] = 0 W, before the start of administration
[5] = 6-24 W, all data of 6, 12 and 24 weeks
[6] = Plasma, comparison with reference drug
[7] = Urine, comparison with reference drug
[8] = compared to before administration

## O=C([O-])O.[Na+] [Bicarbonate, sodium bicarbonate]
[1]; [4]
  Indoxyl Sulfate-Urine/Plasma ratio: 55.5 ± 43.6
  Plasma Indoxyl Sulfate: 1338 ± 770 ng/mL
  Urine Indoxyl Sulfate (early morning urine): 54379 ± 40259 ng/mL
[1]; [5]
  Indoxyl Sulfate-Urine/Plasma ratio: 46.2 ± 33.7^d
  Indoxyl Sulfate-Urine/Plasma ratio, change from week 0: −10.33 ± 36.35
  Plasma Indoxyl Sulfate: 1426 ± 930 ng/mL
  Plasma Indoxyl Sulfate, change from week 0: 107.0 ± 695.8 ng/mL
  Urine Indoxyl Sulfate (early morning urine): 48954 ± 35769^d ng/mL
  Urine Indoxyl Sulfate, change from week 0: -5425 ± 38514 ng/mL
[1]; 6 W
  Indoxyl Sulfate-Urine/Plasma ratio: 51.7 ± 36.4
  Indoxyl Sulfate-Urine/Plasma ratio, change from week 0: −3.81 ± 37.48
  Plasma Indoxyl Sulfate: 1365 ± 821 ng/mL
  Plasma Indoxyl Sulfate, change from week 0: 27.5 ± 523.0 ng/mL
  Urine Indoxyl Sulfate (early morning urine): 52510 ± 39229 ng/mL
  Urine Indoxyl Sulfate, change from week 0: -1869 ± 19390 ng/mL
[1]; 12 W
  Indoxyl Sulfate-Urine/Plasma ratio: 35.3 ± 26.4
  Indoxyl Sulfate-Urine/Plasma ratio, change from week 0: −22.41 ± 35.49
  Plasma Indoxyl Sulfate: 1432 ± 1031 ng/mL
  Plasma Indoxyl Sulfate, change from week 0: 153.1 ± 887.4 ng/mL
  Urine Indoxyl Sulfate (early morning urine): 37860 ± 26401 ng/mL
  Urine Indoxyl Sulfate, change from week 0: -16519 ± 40380 ng/mL
[1]; 24 W
  Indoxyl Sulfate-Urine/Plasma ratio: 50.7 ± 36.5^c
  Indoxyl Sulfate-Urine/Plasma ratio, change from week 0: −4.78 ± 35.33
  Plasma Indoxyl Sulfate: 1481 ± 988 ng/mL
  Plasma Indoxyl Sulfate, change from week 0: 143.4 ± 682.5 ng/mL
  Urine Indoxyl Sulfate (early morning urine): 56492 ± 39593 ng/mL
  Urine Indoxyl Sulfate, change from week 0: 2113 ± 49356 ng/mL
[1]; Plasma, comparison with Cont
  Influence on concentration of IS: —
[1]; [6]
  Influence on concentration of IS: X
[1]; comparison with Cont
  Influence on IS U/P ratio: ◯
[1]; comparison with reference drug
  Influence on IS U/P ratio: X
[1]; Urine, comparison with Cont
  Influence on concentration of IS: (◯)
[1]; [7]
  Influence on concentration of IS: X
[1]; [8]
  concentration of indoxyl sulfate in blood: such an effect was not recognized
  concentration of indoxyl sulfate in urine: such an effect was not recognized
[2]; [4]
  Urine B2-microglobulin: 99.0 ± 62.8 µg/L
[2]; [5]
  Urine B2-microglobulin: 206.2 ± 255.8^a μg/L
  Urine B2-microglobulin, change from week 0: 148.3 ± 258.4 ^b ug/L
[2]; 6 W
  Urine B2-microglobulin: 216.3 ± 228.2^e μg/L
  Urine B2-microglobulin, change from week 0: 117.3 ± 220.7 µg/L
[2]; 12 W
  Urine B2-microglobulin: 264.5 ± 301.9 µg/L
  Urine B2-microglobulin, change from week 0: 165.5 ± 282.0^ ug/L
[2]; 24 W
  Urine B2-microglobulin: 261.0 ± 301.5^c,f μg/L
  Urine B2-microglobulin, change from week 0: 162.0 ± 281.8 ^c ug/L
[2]; from urinary β2-microglobulin
  kidney tubular damage (kidney proximal tubular damage) associated with progression of the stage: did not suppress
[3]; [4]
  Hippuric Acid-Urine/Plasma ratio: 304.5 ± 361.8
  Plasma Hippuric Acid: 742 ± 706 ng/mL
  Urine Hippuric Acid (early morning urine): 109249 ± 96133 ng/mL
[3]; [5]
  Hippuric Acid-Urine/Plasma ratio: 265.8 ± 812.9
  Hippuric Acid-Urine/Plasma ratio, change from week 0: −50.2 ± 688.3^b
  Plasma Hippuric Acid: 1091 ± 991 ng/mL
  Plasma Hippuric Acid, change from week 0: 342.1 ± 838.5 ^e ng/mL
  Urine Hippuric Acid (early morning urine): 103027 ± 76475 ng/mL
  Urine Hippuric Acid, change from week 0: -6221 ± 73493 ng/mL
[3]; 6 W
  Hippuric Acid-Urine/Plasma ratio: 148.7 ± 119.2^f
  Hippuric Acid-Urine/Plasma ratio, change from week 0: −155.8 ± 312.2^a
  Plasma Hippuric Acid: 809 ± 496 ng/mL
  Plasma Hippuric Acid, change from week 0: 66.6 ± 681.8 ng/mL
  Urine Hippuric Acid (early morning urine): 98283 ± 80730 ng/mL
  Urine Hippuric Acid, change from week 0: -10966 ± 75133 ng/mL
[3]; 12 W
  Hippuric Acid-Urine/Plasma ratio: 151.8 ± 115.8
  Hippuric Acid-Urine/Plasma ratio, change from week 0: −161.2 ± 302.1
  Plasma Hippuric Acid: 994 ± 806 ng/mL
  Plasma Hippuric Acid, change from week 0: 230.0 ± 655.6 ng/mL
  Urine Hippuric Acid (early morning urine): 96346 ± 70315 ng/mL
  Urine Hippuric Acid, change from week 0: -12903 ± 61236 ng/mL
[3]; 24 W
  Hippuric Acid-Urine/Plasma ratio: 523.0 ± 1438
  Hippuric Acid-Urine/Plasma ratio, change from week 0: 191.1 ± 1147
  Plasma Hippuric Acid: 1465 ± 1387^c ng/mL
  Plasma Hippuric Acid, change from week 0: 722.3 ± 1023 ^c ng/mL
  Urine Hippuric Acid (early morning urine): 114453 ± 81562 ng/mL
  Urine Hippuric Acid, change from week 0: 5204 ± 85546 ng/mL
[3]; Plasma, comparison with Cont
  Influence on concentration of HA: X
[3]; [6]
  Influence on concentration of HA: —
[3]; comparison with Cont
  Influence on HA U/P ratio: X
[3]; comparison with reference drug
  Influence on HA U/P ratio: —
[3]; Urine, comparison with Cont
  Influence on concentration of HA: —
[3]; [7]
  Influence on concentration of HA: —
